Data reported in patent publication US11691962B2 (eXIthera Pharmaceuticals, Inc., priority 2018, dated 2023).

Experiments:
[1] = target: Factor XIa (Homo sapiens (Human), UniProt P03951); assay: Factor XIa enzyme inhibition assay (dose response, fluorogenic AMC substrate); type: biochemical; conditions: read-out: hFXIa IC50
Method in brief: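 Human FXIa at 0.25 nM final with 50 μM final PyroGlu-Pro-Arg-AMC in 20 mM Hepes pH 7.4, 150 mM NaCl, 0.02% Tween 20. Two-fold serial compound dilutions; fluorescence read every minute for 30 min at 30° C. IC50 from a four-parameter Hill fit.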

[2] = Caco-2 cell permeability assay; type: in vitro ADME, human; conditions: human, 37° C.; for Papp A→B at 60 min, 10 μM: Caco-2, apical to basolateral; for Papp B→A at 40 min, 10 μM: Caco-2, basolateral to apical
Method in brief: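 Caco-2 monolayers (days 21-25 post-seeding) received 10 μM compound in HBSS-MES pH 6.5 or HBSS-HEPES pH 7.4 (1% DMSO) at 37 °C, for 60 min A-B or 40 min B-A. Donor and receiver samples were quantified by HPLC-MS/MS (SRM), and Papp and recovery were calculated.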

[3] = target: Thrombin (Homo sapiens (Human), UniProt P00734); assay: Dose response assay for protease inhibitors: thrombin; type: biochemical; conditions: selectivity, thrombin over Factor XIa
Method in brief: (§1)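 Fluorogenic AMC-peptide cleavage in 20 mM Hepes pH 7.4, 150 mM NaCl, 0.02% Tween 20; 100 μM stock substrate dilution (Glp-Pro-Arg-AMC for thrombin/trypsin; Pro-Phe-Arg-AMC or Boc-Leu-Gly-Arg-AMC for Factor Xa). Enzyme diluted to 0.5 nM, added last to two-fold compound series; kinetic read at 30° C, 30 min (Factor Xa 60 min); IC50 fitted.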

[4] = target: Factor Xa (Homo sapiens (Human), UniProt P00742); assay: Dose response assay for protease inhibitors: Factor Xa; type: biochemical; conditions: selectivity, Factor Xa over Factor XIa
Method in brief: as §1

Chain of Factor XIa (P03951 388-625): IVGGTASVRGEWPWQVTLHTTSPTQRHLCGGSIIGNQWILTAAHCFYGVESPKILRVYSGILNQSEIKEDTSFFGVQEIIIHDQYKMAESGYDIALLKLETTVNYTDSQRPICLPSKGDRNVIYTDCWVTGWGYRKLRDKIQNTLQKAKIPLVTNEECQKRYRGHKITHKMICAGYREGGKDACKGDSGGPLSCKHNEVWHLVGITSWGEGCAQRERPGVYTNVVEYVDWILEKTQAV
Chain of Factor XIa (P03951 19-387 partner): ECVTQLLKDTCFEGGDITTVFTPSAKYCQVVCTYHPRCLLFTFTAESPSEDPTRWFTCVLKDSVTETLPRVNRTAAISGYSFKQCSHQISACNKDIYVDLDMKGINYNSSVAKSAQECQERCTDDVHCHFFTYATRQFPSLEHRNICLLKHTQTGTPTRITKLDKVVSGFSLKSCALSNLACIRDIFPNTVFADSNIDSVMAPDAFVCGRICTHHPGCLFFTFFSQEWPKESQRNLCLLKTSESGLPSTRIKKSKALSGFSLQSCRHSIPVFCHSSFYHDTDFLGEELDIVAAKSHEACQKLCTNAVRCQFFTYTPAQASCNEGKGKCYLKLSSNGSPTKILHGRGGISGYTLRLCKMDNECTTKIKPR
Chain of Factor Xa (P00742 235-488): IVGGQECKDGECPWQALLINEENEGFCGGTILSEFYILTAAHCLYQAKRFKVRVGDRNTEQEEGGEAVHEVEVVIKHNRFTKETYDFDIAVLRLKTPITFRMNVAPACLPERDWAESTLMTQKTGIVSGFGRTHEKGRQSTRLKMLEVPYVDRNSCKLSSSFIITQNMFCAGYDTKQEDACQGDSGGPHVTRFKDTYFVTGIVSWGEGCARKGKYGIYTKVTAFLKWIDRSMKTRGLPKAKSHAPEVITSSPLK
Chain of Factor Xa (P00742 41-179 partner): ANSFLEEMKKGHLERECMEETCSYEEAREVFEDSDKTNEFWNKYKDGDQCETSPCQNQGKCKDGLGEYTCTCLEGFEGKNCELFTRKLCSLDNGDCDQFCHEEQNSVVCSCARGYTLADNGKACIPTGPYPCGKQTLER

SMILES	IC50 [1] [nM]	Papp A→B at 60 min, 10 μM [2] [×10⁻⁶ cm/s]	Papp B→A at 40 min, 10 μM [2] [×10⁻⁶ cm/s]	Ratio: Thrombin/FXIa [3]	Ratio: FXa/FXIa [4]
CC[C@@H](NC(=O)N1C(=O)[C@H](Cc2ccnc(N)c2)[C@H]1C(=O)N(C)c1cscn1)c1cccc(Cl)c1 [Compound 1-17, (2S,3R)-3-((2-aminopyridin-4-yl)methyl)-N2-(4-thiazolyl)-N1-((R)-1-(3-chlorophenyl)propyl)-N2-methyl-4-oxoazetidine-1,2-dicarboxamide]	< 10	11 to 30	11 to 30	H (“H” indicates 101-1000)	H (“H” indicates 101-1000)
CC[C@@H](NC(=O)N1C(=O)[C@H](Cc2cc(C)nc(NC)c2)[C@H]1C(=O)N(C)c1nccn1C)c1ccccc1 [Compound 1-45, (2S,3R)-3-((2-methylamino-6-methylpyridin-4-yl)methyl)-N2-(1-methyl-1H-imidazol-2-yl)-N1-((R)-1-phenylpropyl)-N2-methyl-4-oxoazetidine-1,2-dicarboxamide]	10 to 100	11 to 30	31 to 50	H (“H” indicates 101-1000)	I (“I” indicates > 500)
CC[C@@H](NC(=O)N1C(=O)[C@H](Cc2ccnc(N)c2)[C@H]1C(=O)N(C)c1nccn1C)c1ccccc1 [Compound 1-13, (2S,3R)-3-((2-aminopyridin-4-yl)methyl)-N2-(1-methyl-1H-imidazol-2-yl)-N1-((R)-1-phenylpropyl)-N2-methyl-4-oxoazetidine-1,2-dicarboxamide]	< 10	< 10	11 to 30	I (“I” indicates > 500)	I (“I” indicates > 500)
CC[C@@H](NC(=O)N1C(=O)[C@H](Cc2ccnc(NC)c2)[C@H]1C(=O)N(C)c1nccn1C)c1cccc(Cl)c1 [Compound 1-41, (2S,3R)-3-((2-methylaminopyridin-4-yl)methyl)-N2-(1-methyl-1H-imidazol-2-yl)-N1-((R)-1-(3-chlorophenyl)propyl)-N2-methyl-4-oxoazetidine-1,2-dicarboxamide]	10 to 100	< 10	31 to 50	H (“H” indicates 101-1000)	I (“I” indicates > 500)
CC[C@@H](NC(=O)N1C(=O)[C@H](Cc2cc(C)nc(N)c2)[C@H]1C(=O)N(C)c1ccn(C)n1)c1cccc(C)c1 [Compound 1-22, (2S,3R)-3-((2-amino-6-methylpyridin-4-yl)methyl)-N2-(1-methyl-1H-pyrazol-3-yl)-N1-((R)-1-(3-methylphenyl)propyl)-N2-methyl-4-oxoazetidine-1,2-dicarboxamide]	< 10	< 10	11 to 30	H (“H” indicates 101-1000)	H (“H” indicates 101-1000)
CC[C@@H](NC(=O)N1C(=O)[C@H](Cc2ccnc(N)c2)[C@H]1C(=O)N(C)c1cnn(C)c1)c1ccccc1 [Compound 1-88, (2S,3R)-3-((2-aminopyridin-4-yl)methyl)-N2-(1-methyl-1H-pyrazol-4-yl)-N1-((R)-1-phenylpropyl)-N2-methyl-4-oxoazetidine-1,2-dicarboxamide]	< 10	< 10	11 to 30	G (“G” indicates 1-100)	H (“H” indicates 101-1000)
CC[C@@H](NC(=O)N1C(=O)[C@H](Cc2ccnc(N)c2)[C@H]1C(=O)N(C)c1nccn1C)c1cccc(C)c1 [Compound 1-80, (2S,3R)-3-((2-aminopyridin-4-yl)methyl)-N2-(1-methyl-1H-imidazol-2-yl)-N1-((R)-1-(3-methylphenyl)propyl)-N2-methyl-4-oxoazetidine-1,2-dicarboxamide]	< 10	< 10	31 to 50	H (“H” indicates 101-1000)	I (“I” indicates > 500)
